Assay results as given in patent publication US20120156242A1 (priority 2009, published 2012).

Tests used:
[1] = in vivo; for eliciting of antibody (antibody titer of rabbit immune serum against the peptide): sc
monoclonal antibody D-1 = experiment: Inhibition by synthetic peptides of the neutralization activity of D-1; format: cell-based, human; settings: D-1 and influenza A virus incubated with synthetic peptide

With TMPNNEKFDKLYIWGVHHPGT [peptide 1] the “eliciting of antibody (antibody titer of rabbit immune serum against the peptide)” value [1] was “could elicit the antibody in rabbit”, the antigenicity ([1]; rabbit) was “high antigenicity compared with the lower region peptide” and the neutralization inhibition rate (monoclonal antibody D-1) was “about 50%”.

With NIPSRISIYWTIVKPGD [peptide 2] the “eliciting of antibody (antibody titer of rabbit immune serum against the peptide)” value [1] was “could elicit the antibody in rabbit” and the neutralization inhibition rate (monoclonal antibody D-1) was “about 20%”.
